Counter-ions that a name gives are not always drawn. Like-named read-outs stand apart in the source and are kept apart here. Where a SMILES comes first, the peptide text is derived from it. The star is where a group is joined. Tfa = O=C(C(F)(F)F)*; For = O=C*
Target: T1, LmjIPCS (inositol phosphorylceramide synthase from L. major) (Leishmania major, UniProt E9AFX2)
T1 sequence (E9AFX2 1-338): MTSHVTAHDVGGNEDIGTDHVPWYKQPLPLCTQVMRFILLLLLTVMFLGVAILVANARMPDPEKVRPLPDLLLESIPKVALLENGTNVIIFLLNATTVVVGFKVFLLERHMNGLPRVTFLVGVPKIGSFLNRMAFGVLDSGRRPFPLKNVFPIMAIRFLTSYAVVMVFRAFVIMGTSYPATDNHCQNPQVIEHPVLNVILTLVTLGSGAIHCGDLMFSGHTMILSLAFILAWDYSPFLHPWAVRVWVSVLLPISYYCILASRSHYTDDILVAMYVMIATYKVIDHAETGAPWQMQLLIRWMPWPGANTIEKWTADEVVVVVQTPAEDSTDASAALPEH
Assay: biochemical
Assay type: biochemical
Parameters: inhibition: dose or concentration left out as unconfirmed
Conditions: for inhibition at 20000 µM: read-out: 20mM inhibition LmjIPCS; for inhibition: read-out: inhibition LmjIPCS

[1] = NINDS set screen, single concentration printed as 20mM
[2] = single concentration 20mM as printed, screening of NINDS set, sheet Screen 1
[3] = screening of NINDS set, sheet Screen 1

C[C@@H]1[C@H](O)[C@@H](C)/C=C/C=C/CC/C=C/C=C/C=C/C=C/C(O[C@H]2O[C@H](C)[C@@H](O)[C@H](N)[C@@H]2O)CC2O[C@](O)(CC(O)C(O)CCC(O)CC(O)CC(O)CC(=O)O[C@H]1C)CC(O)C2C(=O)O (stereo partly shown) [NYSTATIN]
20mM inhibition LmjIPCS: 32%

NCCc1c[nH]c2ccccc12 [TRYPTAMINE]
inhibition at 20000 µM: 27%

CC(C)[N+](C)(CCOC(=O)C1c2ccccc2Oc2ccccc21)C(C)C [PROPANTHELINE BROMIDE]
20mM inhibition LmjIPCS [1]: 35%

CCCc1nc(C(C)(C)O)c(C(=O)OCc2oc(=O)oc2C)n1Cc1ccc(-c2ccccc2-c2nnn[nH]2)cc1 [OLMESARTAN MEDOXOMIL]
inhibition at 20000 µM: 21%

CSCC[C@H](NC=O)C(=O)N[C@@H](Cc1ccccc1)C(=O)O [N-FORMYLMETHIONYLPHENYLALANINE] (For-Met-Phe-OH)
20mM inhibition LmjIPCS [2]: 5.35%

O=c1[nH]cc(F)c(=O)[nH]1 [FLUOROURACIL]
inhibition: 4.66%

c1ccc2[nH]c(-c3cscn3)nc2c1 [THIABENDAZOLE]
20mM inhibition LmjIPCS [1]: 41%

CN[C@@H]1[C@H](O[C@H]2[C@H](O[C@H]3[C@H](O)[C@@H](O)[C@H](NC(=N)N)[C@@H](O)[C@@H]3NC(=N)N)O[C@@H](C)[C@]2(O)CO)O[C@@H](CO)[C@H](O)[C@H]1O [DIHYDROSTREPTOMYCIN]
inhibition at 20000 µM: 12%

CS(=O)(=O)c1ccc(C2=C(c3ccccc3)C(=O)OC2)cc1 [ROFECOXIB]
inhibition (NINDS set screen): -2%

N#C/C(=C\c1cccc(O)c1)C(=O)O [alpha-CYANO-3-HYDROXYCINNAMIC ACID]
inhibition at 20000 µM: 8%

Nc1cc(N2CCCCC2)nc(N)[n+]1[O-] [MINOXIDIL]
inhibition: 15%

CC(C)[C@H](NC(=O)[C@H](Cc1ccc(O)cc1)NC(=O)[C@@H](NC(=O)C(F)(F)F)C(C)C)C(=O)O [Tfa-VAL-TYR-VAL-OH] (Tfa-Val-Tyr-Val-OH)
inhibition at 20000 µM: 7.54%

OC(CCN1CCCCC1)(c1ccccc1)c1ccccc1 [PRIDINOL]
inhibition (NINDS set screen): 27%

Cn1c(=O)[nH]c2nc[nH]c2c1=O [1-METHYLXANTHINE]
inhibition [3]: 11%

Oc1ncnc2[nH]ncc12 [ALLOPURINOL]
20mM inhibition LmjIPCS: 56%

CO[C@H]1C[C@H](O[C@H]2[C@H](C)[C@@H](O[C@@H]3O[C@H](C)C[C@H](N(C)C)[C@H]3O)[C@@H](C)C[C@@]3(CO3)C(=O)[C@H](C)[C@@H](O)[C@@H](C)[C@@H](C)OC(=O)[C@@H]2C)O[C@@H](C)[C@@H]1O [OLEANDOMYCIN]
inhibition at 20000 µM: 1.17%

COc1cccc(OC)c1OCCNCC1COc2ccccc2O1 (stereo not shown)
20mM inhibition LmjIPCS: -4.65%

NCCCC(=O)O [gamma-AMINOBUTYRIC ACID]
inhibition: -20%

COc1ccc2[nH]cc(CCN)c2c1 [MEXAMINE]
20mM inhibition LmjIPCS: 25%

Nc1c2c(nc3ccccc13)CCCC2O.O=C(O)/C=C\C(=O)O (stereo not shown) [HYDROXYTACRINE MALEATE]
20mM inhibition LmjIPCS: 11%

CCCCOc1ccc(C(=O)CCN2CCCCC2)cc1 [DYCLONINE]
20mM inhibition LmjIPCS: 61%

CC[C@@]1([C@@H]2O[C@@H]([C@H]3O[C@@](O)(CO)[C@H](C)C[C@@H]3C)C[C@@H]2C)CC[C@H]([C@]2(C)CC[C@]3(C[C@H](O)[C@@H](C)[C@@H]([C@@H](C)[C@@H](OC)[C@H](C)C(=O)O)O3)O2)O1 [MONENSIN]
inhibition at 20000 µM: 0.265%

NC(=O)NO [HYDROXYUREA]
20mM inhibition LmjIPCS [2]: 11%

CC(=O)[C@@]1(O)CC[C@H]2[C@@H]3C=C(Cl)C4=CC(=O)[C@@H]5C[C@@H]5[C@]4(C)[C@H]3CC[C@@]21C [CYPROTERONE]
20mM inhibition LmjIPCS [2]: 10%

COc1ccc(/C=C/C(=O)Nc2ccccc2C(=O)O)cc1OC
inhibition [3]: 6.57%

Cc1cc(C)nc(NS(=O)(=O)c2ccc(N)cc2)n1 [SULFAMETHAZINE]
inhibition: 1.49%

N[C@H](C(=O)O)[C@@H]1CC(Cl)=NO1 [ACIVICIN]
20mM inhibition LmjIPCS: 39%

CC(C)NNC(=O)c1ccncc1 [IPRONIAZID]
inhibition (NINDS set screen): 31%

CC(=O)NC1CCSC1=O (stereo not shown) [CITIOLONE]
inhibition (NINDS set screen): -8%

Oc1cccc(O)c1 [RESORCINOL]
inhibition: 1.29%

COC(=O)N/N=C/c1c[n+]([O-])c2ccccc2[n+]1[O-] [CARBADOX]
inhibition (NINDS set screen): 12%

NC(Cc1c[nH]cn1)C(=O)Nc1ccc2ccccc2c1 (stereo not shown)
20mM inhibition LmjIPCS [1]: 47%

COCCc1ccc(OCC(O)CNC(C)C)cc1 (stereo not shown) [METOPROLOL]
inhibition at 20000 µM: 21%

CC(N)C(=O)OC(C)(C)Cc1ccc(Cl)cc1 (stereo not shown) [ALAPROCLATE]
20mM inhibition LmjIPCS: 36%

Nc1ncn([C@@H]2O[C@H](CO)[C@@H](O)[C@H]2O)c(=O)n1 [AZACITIDINE]
inhibition: 12%

CC(C)(C)NCC(O)c1cc(O)cc(O)c1 (stereo not shown) [TERBUTALINE]
inhibition [3]: 9%

Cc1cccc(Nc2ccncc2S(=O)(=O)NC(=O)NC(C)C)c1 [TORSEMIDE]
inhibition at 20000 µM: 29%

NS(=O)(=O)c1cc2c(cc1C(F)(F)F)NC(Cc1ccccc1)NS2(=O)=O (stereo not shown) [BENDROFUMETHIAZIDE]
20mM inhibition LmjIPCS: 63%

O=C1NS(=O)(=O)c2ccccc21 [SACCHARIN]
inhibition at 20000 µM: 3.67%

CC(=O)/N=c1/sc(S(N)(=O)=O)nn1C [METHAZOLAMIDE]
inhibition (NINDS set screen): -4.59%

O=C1NCC2(CCN(CCc3ccccc3)CC2)O1 [FENSPIRIDE]
20mM inhibition LmjIPCS [1]: 47%

NC1(C(=O)O)CC1 [AMINOCYCLOPROPANECARBOXYLIC ACID]
20mM inhibition LmjIPCS [2]: 9%

NC[C@H]1O[C@H](O[C@H]2[C@H](O)[C@@H](O[C@H]3O[C@H](CO)[C@@H](O)[C@H](N)[C@H]3O)[C@H](N)C[C@@H]2N)[C@H](O)[C@@H](O)[C@@H]1O [KANAMYCIN]
20mM inhibition LmjIPCS: 26%

COc1ccc(CN(CCN(C)C)c2ccccn2)cc1 [PYRILAMINE]
inhibition: 5.27%

CCOC(N)=O
inhibition at 20000 µM: 11%

CC(C)(C)CC(C)(C)c1ccc(O)c(Cc2ccc(Cl)cc2Cl)c1 [CLOFOCTOL]
20mM inhibition LmjIPCS [1]: 65%

O=C(O)CC[N+](=O)[O-] [BOVINOCIDIN]
20mM inhibition LmjIPCS: 21%

Nc1ncnc2c1ncn2[C@@H]1O[C@H](CO)[C@@H](O)[C@H]1O [ADENOSINE]
20mM inhibition LmjIPCS: 41%

Cc1ccc(C)c(OCCCC(C)(C)C(=O)O)c1 [GEMFIBROZIL]
inhibition at 20000 µM: -1.79%

CCCCCC(=O)O[C@]1(C(C)=O)CC[C@H]2[C@@H]3CCC4=CC(=O)CC[C@]4(C)[C@H]3CC[C@@]21C [HYDROXYPROGESTERONE CAPROATE]
20mM inhibition LmjIPCS: 57%

C#C[C@]1(O)CC[C@H]2[C@@H]3CCc4cc(O)ccc4[C@H]3CC[C@@]21C [ETHINYL ESTRADIOL]
inhibition (NINDS set screen): -11%

CN1CCC(OC(c2ccccc2)c2ccccc2)CC1
20mM inhibition LmjIPCS: 65%

O=C(O)CCc1nc(-c2ccccc2)c(-c2ccccc2)o1 [OXAPROZIN]
inhibition: 5.6%

Clc1ccc(C(OCCN2CCCCC2)c2ccccc2)cc1 (stereo not shown) [CLOPERASTINE]
inhibition (NINDS set screen): 13%

CC1Cc2ccccc2N1NC(=O)c1ccc(Cl)c(S(N)(=O)=O)c1 (stereo not shown) [INDAPAMIDE]
inhibition: 5%

CCn1cc(C(=O)O)c(=O)c2ccc(C)nc21 [NALIDIXIC ACID]
inhibition at 20000 µM: -11%

COc1ccc2c(c1)[nH]c1c(C)nccc12 [HARMINE]
inhibition at 20000 µM: 32%

NC(CO)C(=O)NNCc1ccc(O)c(O)c1O (stereo not shown) [BENSERAZIDE]
20mM inhibition LmjIPCS: 43%

NC(Cn1ccc(=O)c(O)c1)C(=O)O (stereo not shown) [MIMOSINE]
inhibition at 20000 µM: 3%

O=C1O[C@H](CO)[C@@H](O)[C@H](O)[C@H]1O [GLUCONOLACTONE]
inhibition at 20000 µM: 0.589%

NCC(=O)CCC(=O)O [AMINOLEVULINIC ACID]
inhibition: 28%

O=C(O)P(=O)(O)O [FOSCARNET]
inhibition: 2%

CN(Cc1cc(Br)cc(Br)c1N)C1CCCCC1 [BROMHEXINE]
20mM inhibition LmjIPCS [1]: 53%

CN(C)CCc1c[nH]c2ccc(CS(=O)(=O)N3CCCC3)cc12 [ALMOTRIPTAN]
inhibition at 20000 µM: 5%

CO/N=C(\C(=O)N[C@@H]1C(=O)N2C(C(=O)O)=C(CSc3nc(=O)c(=O)[nH]n3C)CS[C@H]12)c1csc(N)n1 [CEFTRIAXONE]
inhibition [3]: 5.34%

CC12CC3CC(C)(C1)CC(N)(C3)C2 [MEMANTINE]
20mM inhibition LmjIPCS [1]: 66%

CCCCC(=O)N(Cc1ccc(-c2ccccc2-c2nnn[nH]2)cc1)[C@H](C(=O)O)C(C)C
inhibition: 20%

N[C@@H](Cc1ccc(O)c(O)c1)C(=O)O [LEVODOPA]
inhibition: 21%

O=C(O)CCCC[C@@H]1CCSS1 (racemic) [THIOCTIC ACID]
20mM inhibition LmjIPCS [1]: 55%

Cc1ccsc1/C=C/C1=NCCCN1C [MORANTEL]
20mM inhibition LmjIPCS: 60%

CC(N/C(=N\C#N)Nc1ccncc1)C(C)(C)C (stereo not shown)
inhibition at 20000 µM: 12%

O=C1[C@H](CC[C@H](O)c2ccc(F)cc2)[C@@H](c2ccc(O)cc2)N1c1ccc(F)cc1 [EZETIMIBE]
inhibition (NINDS set screen): 23%

CC(C)OC(=O)C(C)(C)Oc1ccc(C(=O)c2ccc(Cl)cc2)cc1 [FENOFIBRATE]
20mM inhibition LmjIPCS: 58%

C[C@H](N)[C@H](O)c1cccc(O)c1 [METARAMINOL]
20mM inhibition LmjIPCS: 58%

CNC(C)(C)Cc1ccccc1 [MEPHENTERMINE]
inhibition at 20000 µM: 22%

CC(C)C[C@H](N)C(=O)N[C@@H](C)C(=O)O [L-LEUCYL-L-ALANINE] (H-Leu-Ala-OH)
20mM inhibition LmjIPCS: 5.46%

C[n+]1ccccc1/C=N/O [PRALIDOXIME MESYLATE]
inhibition at 20000 µM: 9%

N[C@@H]1C[C@H]1c1ccccc1 (racemic) [TRANYLCYPROMINE]
20mM inhibition LmjIPCS [1]: 49%

CCCCCCCCCCC[C@@H](C[C@@H]1OC(=O)[C@H]1CCCCCC)OC(=O)[C@H](CC(C)C)NC=O [ORLISTAT]
20mM inhibition LmjIPCS: 66%

Source: publication PMC7802075 (ACS Infectious Diseases, 2020)
